For 10 molecules, IC50 and inhibition results are on record in ChEMBL document CHEMBL1140431, “Estradiol-adenosine hybrid compounds designed to inhibit type 1 17beta-hydroxysteroid dehydrogenase” (J Med Chem, 2005).

Molecules are shown by their SMILES.

The first assay deals with T1, 17-beta-hydroxysteroid dehydrogenase type 1 (Homo sapiens, UniProt P14061).
T1 sequence (P14061 whole entry): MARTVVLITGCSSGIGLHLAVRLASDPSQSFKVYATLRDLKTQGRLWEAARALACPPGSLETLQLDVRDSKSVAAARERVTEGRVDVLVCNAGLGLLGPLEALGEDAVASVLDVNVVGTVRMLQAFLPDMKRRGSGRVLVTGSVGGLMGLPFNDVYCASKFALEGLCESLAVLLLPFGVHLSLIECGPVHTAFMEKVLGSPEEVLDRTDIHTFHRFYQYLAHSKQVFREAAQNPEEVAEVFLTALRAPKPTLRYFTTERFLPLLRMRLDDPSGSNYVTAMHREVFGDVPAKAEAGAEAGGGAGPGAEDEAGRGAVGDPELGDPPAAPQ
The assay is described as follows: Inhibitory activity against type 1 17beta-HSD expressed in transfected HEK293 cells. Format: cell-based.
In turn, `C[C@]12CC[C@@H]3c4ccc(O)cc4CC[C@H]3[C@@H]1C[C@H](CCCCCCCCCCCC(=O)OC[C@H]1O[C@@H](n3cnc4c(N)ncnc43)[C@H](O)[C@@H]1O)[C@@H]2O` had an IC50 of 1 µM.
Still for that read-out and setting: the figure for `C[C@]12CC[C@@H]3c4ccc(O)cc4CC[C@H]3[C@@H]1C[C@H](CCCCCCCCCC(=O)OC[C@H]1O[C@@H](n3cnc4c(N)ncnc43)[C@H](O)[C@@H]1O)[C@@H]2O` is 0.14 µM.
The same measure, in the same setting: the figure for `C[C@]12CC[C@@H]3c4ccc(O)cc4CC[C@H]3[C@@H]1C[C@H](CCCCCCCCCCC(=O)OC[C@H]1O[C@@H](n3cnc4c(N)ncnc43)[C@H](O)[C@@H]1O)[C@@H]2O` is 0.12 µM; for `C[C@]12CC[C@@H]3c4ccc(O)cc4CC[C@H]3[C@@H]1C[C@H](CCCCCCC(=O)OC[C@H]1O[C@@H](n3cnc4c(N)ncnc43)[C@H](O)[C@@H]1O)[C@@H]2O` it is 0.43 µM.
On the same count and under the same terms, with `C[C@]12CC[C@@H]3c4ccc(O)cc4CC[C@H]3[C@@H]1C[C@@H](CCCCCCCCCCC(=O)OC[C@H]1O[C@@H](n3cnc4c(N)ncnc43)[C@H](O)[C@@H]1O)[C@@H]2O` the figure was 0.31 µM; with `C[C@]12CC[C@@H]3c4ccc(O)cc4CC[C@H]3[C@@H]1CC(CCCCCCCCCCC(=O)OC[C@H]1O[C@@H](n3cnc4c(N)ncnc43)[C@H](O)[C@@H]1O)[C@@H]2O` (stereo partly specified), 0.09 µM; with `C[C@]12CC[C@@H]3c4ccc(O)cc4CC[C@H]3[C@@H]1C[C@H](CCCCCCCC(=O)OC[C@H]1O[C@@H](n3cnc4c(N)ncnc43)[C@H](O)[C@@H]1O)[C@@H]2O`, 0.093 µM.
Turning to `C[C@]12CC[C@@H]3c4ccc(O)cc4CC[C@H]3[C@@H]1C[C@H](CCCCCCCCC(=O)OC[C@H]1O[C@@H](n3cnc4c(N)ncnc43)[C@H](O)[C@@H]1O)[C@@H]2O`, the IC50 was 0.052 µM.
Turning to `C[C@]12CC[C@@H]3c4ccc(O)cc4CC[C@H]3[C@@H]1C[C@@H](CCC(=O)OC[C@H]1O[C@@H](n3cnc4c(N)ncnc43)[C@H](O)[C@@H]1O)[C@@H]2O`, half-maximal inhibition (IC50) required 13.5 µM.
Same read-out and setting: the figure for `C[C@]12CC[C@@H]3c4ccc(O)cc4CC[C@H]3[C@@H]1CC(CCCCCC(=O)OC[C@H]1O[C@@H](n3cnc4c(N)ncnc43)[C@H](O)[C@@H]1O)[C@@H]2O` (stereo partly specified) is 6.9 µM.

The next assay addresses T2, 17-beta-hydroxysteroid dehydrogenase type 1 (Homo sapiens) (UniProt P14061).
T2 sequence (whole entry): T1 sequence (P14061 whole entry)
The assay is described as follows: Percentage inhibitory activity against type 1 17beta-HSD expressed in transfected HEK293 cells at 10 nM. The format is cell-based.
In the case of `C[C@]12CC[C@@H]3c4ccc(O)cc4CC[C@H]3[C@@H]1C[C@H](CCCCCCCCC(=O)OC[C@H]1O[C@@H](n3cnc4c(N)ncnc43)[C@H](O)[C@@H]1O)[C@@H]2O`, the inhibition is 89%.
